We go through 81 molecules from the METLIN SMRT retention time set (Domingo-Almenara et al. 2019).

This data set is described as follows: gradient 5% acetonitrile 3 min, to 50% in 2 min, to 85% in 15 min, held 3 min, 100 µL/min. To be noted: column: Zorbax Extend-C18 2.1 x 50 mm; eluents: water / acetonitrile, 0.1% formic acid. In outline:
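Retention time was recorded from adduct peaks, which were picked computationally and each inspected manually. Pure standards ran in mixtures of ~100 molecules on HPLC coupled to a quadrupole time-of-flight mass spectrometer, in positive and negative ionization mode, through a Zorbax Extend-C18 column (2.1 × 50 mm, 1.8 μm) at 100 μL/min. Eluents were water and acetonitrile, each with 0.1% formic acid.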
`COc1cccc2sc(N(Cc3ccco3)C(=O)c3cc(C)nn3C)nc12` yielded an RP-LC retention time of 927 s.

Take `CC(C)n1cnc(S(=O)(=O)N2CCC(C(=O)NCCc3ccccc3)CC2)c1`: the RP-LC retention time stood at 745 s.

For the molecule `CCN(CC)S(=O)(=O)c1ccc2c(c1)ncn2CCC(=O)N1CCN(c2ccccn2)CC1`, the RP-LC retention time was found to be 602 s.

The molecule `O=c1[nH]cc(S(=O)(=O)N2CCOCC2)c(=O)[nH]1` yielded an RP-LC retention time of 546 s.

For the molecule `Cc1nnc(C2CCCCCN2C(=O)Cc2c(C)noc2C)o1` (stereo unspecified), the RP-LC retention time amounted to 658 s.

In the case of `CCCCNC(=O)C1CCCN(c2cc(=O)n(C)c(=O)n2CC)C1` (stereo unspecified), the RP-LC retention time stood at 759 s.

For the molecule `COC(=O)c1ncn2c1C(=O)N(Cc1cccc(Cl)c1)C(C)(C(=O)NCc1ccccc1)C2` (stereo unspecified), the RP-LC retention time was 755 s.

`COc1cccc(N2CCN(Cc3nc4nc(C)cc(N(C)C)n4n3)CC2)c1` had an RP-LC retention time of 610 s.

Regarding `CC1=NS(=O)(=O)N(C)C=C1C(=O)OCc1nc(-c2ccccc2Cl)no1`, the RP-LC retention time was 954 s.

As for `CCNc1cc(N2CCCC(CCC(=O)NC(C)c3cccs3)C2)ncn1` (stereo unspecified), the RP-LC retention time is 661 s.

Molecule `Cc1ccc(Cn2cc(-c3ccncc3)cc2C(=O)NCc2ccc(N(C)C)cc2)cc1` showed an RP-LC retention time of 630 s.

The molecule `Cc1cc2c(cc1S(=O)(=O)NC1CC1)N(C(=O)C1CCC1)CC2` had an RP-LC retention time of 844 s.

`CCOc1ccc(NC(=O)Cn2c(=O)c(CCC(=O)NC3CCCC3)nc3ccccc32)cc1` came in with an RP-LC retention time of 860 s.

As for `Nc1nnc(C2CC(=O)N(c3ccccc3)C2)o1` (stereo unspecified), the RP-LC retention time was 570 s.

In turn, `CCn1nc(C)c(-c2cc(C(=O)N3CCCCCCNC(=O)[C@@H]4CCCC[C@@H]43)no2)c1C` had an RP-LC retention time of 834 s.

As for `O=C1COc2ccccc2N1Cc1nc(-c2cccc(Cl)c2)no1`, the RP-LC retention time amounted to 1060 s.

Take `Cc1ccc(S(=O)(=O)NCC2CCN(C(=O)Oc3ccccc3)CC2)s1`: the RP-LC retention time was found to be 576 s.

`CCOC(=O)c1nc(NCc2ccc(OC)cc2OC)c2ccccc2n1` showed an RP-LC retention time of 768 s.

`Cc1cc(C)c2c(N3CCCCC3)nc(C(=O)N3CCN(C(C)C)CC3)nc2n1` had an RP-LC retention time of 556 s.

Take `CCN(CC)C(=O)N1CCC(c2noc(COc3ccc(F)cc3)n2)C1` (stereo unspecified): the RP-LC retention time amounted to 553 s.

`CCN(CC)CCNC(=O)CCc1cc2ccc(C)cc2[nH]c1=O` registered an RP-LC retention time of 591 s.

With `CC(NC(=O)COc1ccccc1)C(=O)N1CCN(c2ccccn2)CC1` (stereo unspecified), the RP-LC retention time is 602 s.

Turning to `COc1cc(NC(=O)[C@@H]2COCC(=O)N2Cc2ccc(OC)cc2OC)cc(OC)c1`, the RP-LC retention time stood at 702 s.

In turn, `O=C(Cn1nc2nc(Nc3ccc(F)cc3)ccn2c1=O)N1CCCC1` yielded an RP-LC retention time of 621 s.

The molecule `Cc1ccccc1-c1nc(-c2ccc3nnn(C)c3c2)no1` had an RP-LC retention time of 1060 s.

On to `O=C(NCC(O)c1ccc(C(F)(F)F)cc1)C1(c2ccccc2)CCOCC1` (stereo unspecified), for which the RP-LC retention time is 785 s.

In turn, `CCCN1CCN(C(=O)CSCc2nc3cccnc3n2C2CCCCC2)CC1` displayed an RP-LC retention time of 638 s.

On to `Cc1noc(C)c1CCNC(=O)c1ccc2ccnc(N3CCN(c4ccc(F)cc4)CC3)c2c1`, for which the RP-LC retention time turned out to be 731 s.

Turning to `CC(C)CCNC(=O)c1nnc(-c2ccc(S(=O)(=O)N(C)C)cc2)o1`, the RP-LC retention time turned out to be 877 s.

Take `CN(C1CCCCC1)S(=O)(=O)N1CCCC(C(=O)NCc2ccc3c(c2)OCO3)C1` (stereo unspecified): the RP-LC retention time was 954 s.

In turn, `CCOC(=O)c1c(C)[nH]c(C(=O)N2CCC(CC(=O)NC3CCCCCC3)CC2)c1C` displayed an RP-LC retention time of 835 s.

`C[C@H](NC[C@H](O)CP(=O)(O)Cc1ccccc1)c1ccc(Cl)c(Cl)c1` gave an RP-LC retention time of 722 s.

Take `O=C(Nc1cccc2nsnc12)C1CCN(S(=O)(=O)N2CCOCC2)CC1`: the RP-LC retention time worked out at 775 s.

`Cc1cc(Cl)ccc1S(=O)(=O)N1CCC(n2cnnc2C)CC1`: the RP-LC retention time was 745 s.

For the molecule `Cc1cccc(-c2nnc(-c3nc(NCCN4CCOCC4)c4ccccc4n3)o2)c1`, the RP-LC retention time was found to be 662 s.

For `CCn1ccc(NC(=O)NC(C)(C)C)n1`, the RP-LC retention time is 705 s.

The molecule `CC(C)Oc1ccc(-c2noc(Cn3c(=O)n(-c4ccccc4F)c(=O)c4sccc43)n2)cc1` gave an RP-LC retention time of 1090 s.

Molecule `O=C(CSc1nccc(N2CCCC2)n1)N1CCN(c2ccccc2F)CC1` returned an RP-LC retention time of 677 s.

Take `Cn1ncc2c3ccccc3n(CC(=O)NCCCN3CCCC3=O)c2c1=O`: the RP-LC retention time was 615 s.

Regarding `CC(C)(Oc1ccc(Cl)cc1)C(=O)Nc1c(-c2ccccc2)nc2ccccn12`, the RP-LC retention time is 783 s.

The molecule `CCCN(CC1CCOC1)C(=O)Nc1ccccc1OCC` (stereo unspecified) displayed an RP-LC retention time of 903 s.

As to `Cc1cccc(S(=O)(=O)N2CCc3nc(-c4ccccc4)ncc3C2)c1`, the RP-LC retention time turned out to be 1070 s.

`Cc1cc(C)cc(N2C(=O)CC(N3CCC(C(N)=O)CC3)C2=O)c1` (stereo unspecified): the RP-LC retention time was 562 s.

On to `Cn1nc(-c2nnc(-c3ccccc3F)o2)c2c1CCN(S(=O)(=O)c1ccc(F)cc1F)C2`, for which the RP-LC retention time was found to be 922 s.

Regarding `COc1ccc(NC(=O)C2CCN(S(=O)(=O)c3c(C)nn(-c4ccccc4)c3C)CC2)cc1OC`, the RP-LC retention time came to 859 s.

Molecule `Cc1ncc2c(n1)C[C@@H]1CC[C@H]2N1S(=O)(=O)c1ccccc1C` gave an RP-LC retention time of 750 s.

`O=S(=O)(Nc1ccc(Cn2cncn2)cc1)c1ccc(F)c(Cl)c1` displayed an RP-LC retention time of 758 s.

As to `Cc1ccc(CNC(=O)C2(c3ccc(NC(=O)C4CC4)cc3)CCC2)cc1`, the RP-LC retention time is 853 s.

In turn, `CC(C)(C)C(=O)N1CCC(F)(c2nc(-c3ccncc3)no2)CC1` gave an RP-LC retention time of 802 s.

`CCn1ccc2sc(C)c(C(=O)NCc3cccs3)c2c1=O` registered an RP-LC retention time of 772 s.

In turn, `CC(C)CNc1nnc(-c2nc(C3CC3)no2)c2ccccc12` gave an RP-LC retention time of 657 s.

For `CCn1c(=O)c(N2CCCC(C(=O)NCCc3ccco3)C2)nc2cccnc21` (stereo unspecified), the RP-LC retention time was 828 s.

`CCOC(=O)N1CCN(C(=O)c2ccc(S(=O)(=O)NCc3cccs3)o2)CC1`: the RP-LC retention time was 729 s.

`Cc1cc(Cl)ccc1OCC(=O)N1CCCCC1c1nncn1C` (stereo unspecified) returned an RP-LC retention time of 767 s.

`Cc1cc(Nc2ccc(NC(=O)Cn3cnc4ccccc43)cc2)nc(N2CCCC2)n1`: the RP-LC retention time is 548 s.

In turn, `CCc1c(C2CCN(C(=O)c3ccnn3CC)CC2)noc1N` registered an RP-LC retention time of 652 s.

In the case of `Cc1ccc(NS(=O)(=O)c2cc(-c3nc(C(C)C)cs3)cs2)c(C)c1`, the RP-LC retention time is 1210 s.

Turning to `COc1ccc(C(=O)Nc2nc(-c3ccc4c(c3)NC(=O)CO4)c(C)s2)cc1OC`, the RP-LC retention time worked out at 814 s.

In turn, `CCCCN(CC)c1ccc(C(=O)O)cc1NC(=O)c1cccs1` returned an RP-LC retention time of 1070 s.

In turn, `COc1ccc(C2=NC3(CCN(C(=O)c4ccc(OC)cc4OC)CC3)NC2=O)cc1` registered an RP-LC retention time of 776 s.

The molecule `Cn1c(C2CCC(CNC(=O)Cn3c(=O)oc4ccccc43)CC2)nc2ccccc21` (stereo unspecified) came in with an RP-LC retention time of 566 s.

On to `C=CCNC(=O)c1cn(-c2cc(-c3nc(C)no3)ccn2)cn1`, for which the RP-LC retention time was 711 s.

The molecule `CC1=C(c2ccccc2)S(=O)(=O)N=C1N1CCC(NC(=O)C2CCCO2)CC1` (stereo unspecified) registered an RP-LC retention time of 702 s.

Consider `COc1ccc(NC(=O)Cc2csc(NC(=O)c3ccc(=O)[nH]c3)n2)cc1Cl`, for which the RP-LC retention time worked out at 637 s.

Consider `Cc1ccc(N2CCC(NC(=O)NC(C)C)C2=O)cc1C` (stereo unspecified), for which the RP-LC retention time stood at 740 s.

Molecule `Cc1ccc(F)cc1NC(=O)CN1CCC(c2nc(-c3cccs3)no2)CC1` had an RP-LC retention time of 725 s.

`Cc1cc(C(=O)NCc2ccccc2)nc2cc(-c3cccs3)nn12` displayed an RP-LC retention time of 1080 s.

`O=C(Nc1cccc(Br)c1)C1CCN(C(=O)C2Sc3ccccc3NC2=O)CC1` (stereo unspecified) displayed an RP-LC retention time of 857 s.

As to `CCCn1ccc2sc(C)c(C(=O)NCc3cccc(Br)c3)c2c1=O`, the RP-LC retention time turned out to be 998 s.

`CNC(=O)c1sc2nc(-c3ccc(F)cc3)c(NCCOC)n2c1C` registered an RP-LC retention time of 741 s.

In the case of `COc1ccc(OC)c(NC(=O)CN2c3ccc(F)cc3-c3ccccc3S2(=O)=O)c1`, the RP-LC retention time amounted to 1010 s.

`CCN1CCN(C(=O)C2CCc3sc(C(=O)N4CCCC4)cc3C2)CC1` (stereo unspecified) displayed an RP-LC retention time of 580 s.

For the molecule `O=C(NCCN1CCOCC1)c1nc(-c2ccnc(N3CCCCCC3)c2)no1`, the RP-LC retention time was 564 s.

In the case of `O=C(Nc1cccn2cnnc12)c1ccc(Cl)s1`, the RP-LC retention time was found to be 719 s.

`CNC(=O)C1CCCN(C(=O)Nc2ccc(NC(=O)Nc3ccc(C)c(C)c3)cc2)C1` (stereo unspecified) displayed an RP-LC retention time of 722 s.

`COc1ccc(C(=O)N2CCn3c(nnc3C(C)C)C2)c(OC)n1` registered an RP-LC retention time of 588 s.

`Cc1cccc(-c2nnc(CC(=O)NCCC(C)C)o2)c1` displayed an RP-LC retention time of 828 s.

In turn, `CC1(C(=O)NCc2ccc(F)cc2)CCCN(C(=O)Nc2ccc(F)c(Cl)c2)C1` (stereo unspecified) showed an RP-LC retention time of 972 s.

`O=C(Cn1nc(N2CCCC2)c2ccccc2c1=O)Nc1ccc(F)cc1Cl` registered an RP-LC retention time of 1010 s.

Take `CCn1cc(-c2nc(C(=O)NCc3ccccc3Cl)cs2)c2cccnc21`: the RP-LC retention time came out at 1070 s.

Molecule `CCOC(=O)c1c(C)n(C)c2ccc(OC(C)C(=O)OC)cc12` (stereo unspecified) came in with an RP-LC retention time of 894 s.
